This is an account of results in patent US9340600B2 (Indiana University Research and Technology Corporation, priority 2012, dated 2016).

As a reminder, the EC50 is the concentration that produces a half-maximal response.

*1 amine or outer side, *2 acyl side, *3 side chain or, on linkers, in order; H or OH if unused. Where a SMILES comes first, the peptide text is derived from it. Where no end group is shown, it is not given here. Side-chain parts run from the residue outwards. [ ]: non-standard residue; d: D form. The star is where a group is joined. γGlu = O=C(O)[C@H](CCC(=O)[*:2])N[*:1]; Palmitoyl = CCCCCCCCCCCCCCCC(=O)*; Met(O) = CS(=O)CC[C@H](N)C(=O)O; Aib = CC(C)(N)C(=O)O

Holding throughout (format): cell-based
Assay [1] deals with T1, glucagon receptor (Homo sapiens, UniProt P47871).
T1 construct: expressed in transfected cells; host or cells: HEK293
T1 sequence (P47871 26-477): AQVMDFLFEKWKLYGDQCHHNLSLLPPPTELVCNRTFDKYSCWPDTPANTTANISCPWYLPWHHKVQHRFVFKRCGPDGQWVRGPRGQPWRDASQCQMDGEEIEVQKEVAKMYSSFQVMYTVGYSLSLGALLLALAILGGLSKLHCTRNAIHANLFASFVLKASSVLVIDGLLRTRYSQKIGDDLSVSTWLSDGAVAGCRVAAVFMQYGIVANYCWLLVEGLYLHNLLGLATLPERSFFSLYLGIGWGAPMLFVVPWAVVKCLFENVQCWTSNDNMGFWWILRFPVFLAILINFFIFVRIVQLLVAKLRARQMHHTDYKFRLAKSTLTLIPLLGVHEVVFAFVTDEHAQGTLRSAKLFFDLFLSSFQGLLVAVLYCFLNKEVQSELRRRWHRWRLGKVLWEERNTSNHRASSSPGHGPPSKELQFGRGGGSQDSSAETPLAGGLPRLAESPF
Description: cAMP induction, firefly luciferase-based reporter assay in HEK293 cells co-transfected with glucagon receptor. Conditions: EC50 at Glucagon Receptor. The source says:
(§1) This example describes an exemplary method of testing the biological activity of the peptides of the present disclosures, which method involves assaying cAMP synthesis.
In general terms: A reporter such as luciferase makes a cellular process visible.

Assay [2] has as its target T2, GIP receptor (Homo sapiens, UniProt P48546).
T2 construct: expressed in transfected cells; host or cells: HEK293
T2 sequence (P48546 22-466): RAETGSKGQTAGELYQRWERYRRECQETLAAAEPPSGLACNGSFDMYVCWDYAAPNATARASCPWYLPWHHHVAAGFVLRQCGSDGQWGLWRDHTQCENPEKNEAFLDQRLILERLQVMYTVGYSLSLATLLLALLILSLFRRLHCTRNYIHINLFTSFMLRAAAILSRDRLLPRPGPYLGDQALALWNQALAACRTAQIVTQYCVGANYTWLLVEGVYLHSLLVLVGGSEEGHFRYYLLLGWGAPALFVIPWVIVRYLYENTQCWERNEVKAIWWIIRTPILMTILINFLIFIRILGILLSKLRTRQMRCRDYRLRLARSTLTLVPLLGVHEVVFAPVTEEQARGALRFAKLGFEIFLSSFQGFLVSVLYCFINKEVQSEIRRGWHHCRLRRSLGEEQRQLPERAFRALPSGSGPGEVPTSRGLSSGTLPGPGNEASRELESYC
Description: cAMP induction, firefly luciferase-based reporter assay in HEK293 cells co-transfected with GIP receptor. Conditions: EC50 at GIP Receptor.
Description: as §1

For assay [3], the target named is T3, GLP-1 receptor (Homo sapiens, UniProt P43220).
T3 construct: expressed in transfected cells; host or cells: HEK293
T3 sequence (P43220 24-463): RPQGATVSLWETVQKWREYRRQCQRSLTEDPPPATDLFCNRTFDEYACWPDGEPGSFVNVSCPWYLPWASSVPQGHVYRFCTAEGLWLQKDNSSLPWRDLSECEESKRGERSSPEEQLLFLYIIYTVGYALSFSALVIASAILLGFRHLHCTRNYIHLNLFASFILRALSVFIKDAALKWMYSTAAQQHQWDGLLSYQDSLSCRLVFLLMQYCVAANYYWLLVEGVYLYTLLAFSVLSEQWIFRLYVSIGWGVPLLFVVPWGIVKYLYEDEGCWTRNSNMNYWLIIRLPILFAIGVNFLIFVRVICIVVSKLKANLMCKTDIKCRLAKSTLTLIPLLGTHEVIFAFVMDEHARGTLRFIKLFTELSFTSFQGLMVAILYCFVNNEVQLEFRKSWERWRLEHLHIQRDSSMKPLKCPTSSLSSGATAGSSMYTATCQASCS
The experiment in a line: cAMP induction, firefly luciferase-based reporter assay in HEK293 cells co-transfected with GLP-1 receptor. Particulars: EC50 at GLP-1 Receptor.
Description: as §1

[4] abbreviates: Table 3, analogs of SEQ ID NO: 18 varying at position 3.
[5] abbreviates: Table 2, analogs of SEQ ID NO: 18 varying at positions 16-21.

On to `CCCCCCCCCCCCCCCC(=O)N[C@@H](CCC(=O)NCCCC[C@H](NC(=O)[C@H](CC(=O)O)NC(=O)[C@H](CO)NC(=O)[C@@H](NC(=O)[C@H](Cc1ccccc1)NC(=O)[C@@H](NC(=O)CNC(=O)[C@H](CCC(=O)O)NC(=O)C(C)(C)NC(=O)[C@@H](N)Cc1c[nH]cn1)[C@@H](C)O)[C@@H](C)O)C(=O)N[C@@H](CO)C(=O)N[C@@H](CCCCN)C(=O)N[C@@H](Cc1ccc(O)cc1)C(=O)N[C@@H](CC(C)C)C(=O)N[C@@H](CCC(=O)O)C(=O)N[C@@H](CCC(=O)O)C(=O)N[C@@H](CCCNC(=N)N)C(=O)N[C@@H](C)C(=O)N[C@@H](C)C(=O)N[C@@H](CCC(N)=O)C(=O)N[C@@H](CCC(=O)O)C(=O)N[C@@H](Cc1ccccc1)C(=O)N[C@H](C(=O)N[C@@H](CCC(N)=O)C(=O)N[C@@H](Cc1c[nH]c2ccccc12)C(=O)N[C@@H](CC(C)C)C(=O)N[C@@H](CC(C)C)C(=O)N[C@@H](CCC(=O)O)C(=O)NCC(=O)NCC(=O)N1CCC[C@H]1C(=O)N[C@@H](CO)C(=O)N[C@@H](CO)C(=O)NCC(=O)N[C@@H](C)C(=O)N1CCC[C@H]1C(=O)N1CCC[C@H]1C(=O)N1CCC[C@H]1C(=O)N[C@@H](CO)C(N)=O)C(C)C)C(=O)O` [compound 29] (H-H[Aib]EGTFTSDK([γGlu-Palmitoyl])SKYLEERAAQEFVQWLLEGGPSSGAPPPS-NH2; N-terminus assumed), for which the results for the EC50 in assay [1] (setting [4]), in assay [2] (setting [4]) and in assay [3] (setting [4]) were 1.5 nM, 17 pM and 8 pM, respectively.

As to “H-H[Aib]QGTFTSDYSKYLEERAAQDFVQWLLDGGPSSGAPPPSK([γGlu-γGlu-Palmitoyl])G-NH2 [compound 15]”, the EC50 was determined as 0.005 nM in assay [1] (Table 1) and 3 pM in assay [3] (Table 1).

Take `CCCCCCCCCCCCCCCC(=O)N[C@@H](CCC(=O)NCCCC[C@H](NC(=O)[C@H](CC(=O)O)NC(=O)[C@H](CO)NC(=O)[C@@H](NC(=O)[C@H](Cc1ccccc1)NC(=O)[C@@H](NC(=O)CNC(=O)[C@H](C)NC(=O)C(C)(C)NC(=O)[C@@H](N)Cc1c[nH]cn1)[C@@H](C)O)[C@@H](C)O)C(=O)N[C@@H](CO)C(=O)N[C@@H](CCCCN)C(=O)N[C@@H](Cc1ccc(O)cc1)C(=O)N[C@@H](CC(C)C)C(=O)N[C@@H](CCC(=O)O)C(=O)N[C@@H](CCC(=O)O)C(=O)N[C@@H](CCCNC(=N)N)C(=O)N[C@@H](C)C(=O)N[C@@H](C)C(=O)N[C@@H](CCC(N)=O)C(=O)N[C@@H](CCC(=O)O)C(=O)N[C@@H](Cc1ccccc1)C(=O)N[C@H](C(=O)N[C@@H](CCC(N)=O)C(=O)N[C@@H](Cc1c[nH]c2ccccc12)C(=O)N[C@@H](CC(C)C)C(=O)N[C@@H](CC(C)C)C(=O)N[C@@H](CCC(=O)O)C(=O)NCC(=O)NCC(=O)N1CCC[C@H]1C(=O)N[C@@H](CO)C(=O)N[C@@H](CO)C(=O)NCC(=O)N[C@@H](C)C(=O)N1CCC[C@H]1C(=O)N1CCC[C@H]1C(=O)N1CCC[C@H]1C(=O)N[C@@H](CO)C(N)=O)C(C)C)C(=O)O` [compound 35] (H-H[Aib]AGTFTSDK([γGlu-Palmitoyl])SKYLEERAAQEFVQWLLEGGPSSGAPPPS-NH2; N-terminus assumed): the EC50 in assay [1] (setting [4]) was 0.073 nM; in assay [2] (setting [4]), 6 pM; in assay [3] (setting [4]) it was 2 pM.

`CCCCCCCCCCCCCCCC(=O)N[C@@H](CCC(=O)NCCCC[C@H](NC(=O)[C@H](CC(=O)O)NC(=O)[C@H](CO)NC(=O)[C@@H](NC(=O)[C@H](Cc1ccccc1)NC(=O)[C@@H](NC(=O)CNC(=O)[C@H](CCC(N)=O)NC(=O)C(C)(C)NC(=O)[C@@H](N)Cc1c[nH]cn1)[C@@H](C)O)[C@@H](C)O)C(=O)N[C@@H](CO)C(=O)N[C@@H](CCCCN)C(=O)N[C@@H](Cc1ccc(O)cc1)C(=O)N[C@@H](CC(C)C)C(=O)N[C@@H](CC(=O)O)C(=O)NC(C)(C)C(=O)N[C@@H](CCCNC(=N)N)C(=O)N[C@@H](C)C(=O)N[C@@H](C)C(=O)NC(C)(C)C(=O)N[C@@H](CCC(=O)O)C(=O)N[C@@H](Cc1ccccc1)C(=O)N[C@H](C(=O)N[C@@H](CCC(N)=O)C(=O)N[C@@H](Cc1c[nH]c2ccccc12)C(=O)N[C@@H](CC(C)C)C(=O)N[C@@H](CC(C)C)C(=O)N[C@@H](CC(=O)O)C(=O)NCC(=O)NCC(=O)N1CCC[C@H]1C(=O)N[C@@H](CO)C(=O)N[C@@H](CO)C(=O)NCC(=O)N[C@@H](C)C(=O)N1CCC[C@H]1C(=O)N1CCC[C@H]1C(=O)N1CCC[C@H]1C(=O)N[C@@H](CO)C(N)=O)C(C)C)C(=O)O` [compound 24] (H-H[Aib]QGTFTSDK([γGlu-Palmitoyl])SKYLD[Aib]RAA[Aib]EFVQWLLDGGPSSGAPPPS-NH2): the values for the EC50 in assay [1] (setting [5]), in assay [2] (setting [5]) and in assay [3] (setting [5]) were 0.002 nM, 5 pM and 10 pM, respectively.

Consider `CCCCCCCCCCCCCCCC(=O)N[C@@H](CCC(=O)NCCCC[C@H](NC(=O)[C@H](CC(=O)O)NC(=O)[C@H](CO)NC(=O)[C@@H](NC(=O)[C@H](Cc1ccccc1)NC(=O)[C@@H](NC(=O)CNC(=O)[C@H](CC[S+](C)[O-])NC(=O)C(C)(C)NC(=O)[C@@H](N)Cc1c[nH]cn1)[C@@H](C)O)[C@@H](C)O)C(=O)N[C@@H](CO)C(=O)N[C@@H](CCCCN)C(=O)N[C@@H](Cc1ccc(O)cc1)C(=O)N[C@@H](CC(C)C)C(=O)N[C@@H](CCC(=O)O)C(=O)N[C@@H](CCC(=O)O)C(=O)N[C@@H](CCCNC(=N)N)C(=O)N[C@@H](C)C(=O)N[C@@H](C)C(=O)N[C@@H](CCC(N)=O)C(=O)N[C@@H](CCC(=O)O)C(=O)N[C@@H](Cc1ccccc1)C(=O)N[C@H](C(=O)N[C@@H](CCC(N)=O)C(=O)N[C@@H](Cc1c[nH]c2ccccc12)C(=O)N[C@@H](CC(C)C)C(=O)N[C@@H](CC(C)C)C(=O)N[C@@H](CCC(=O)O)C(=O)NCC(=O)NCC(=O)N1CCC[C@H]1C(=O)N[C@@H](CO)C(=O)N[C@@H](CO)C(=O)NCC(=O)N[C@@H](C)C(=O)N1CCC[C@H]1C(=O)N1CCC[C@H]1C(=O)N1CCC[C@H]1C(=O)N[C@@H](CO)C(N)=O)C(C)C)C(=O)O` (stereo partly drawn) [compound 42] (H-H[Aib][Met(O)]GTFTSDK([γGlu-Palmitoyl])SKYLEERAAQEFVQWLLEGGPSSGAPPPS-NH2), for which the 50% effective concentration (EC50) in assay [1] (setting [4]) came to 0.042 nM; in assay [2] (setting [4]) it was 6 pM; in assay [3] (setting [4]) it was 1 pM.

As for “H-H[Aib]QGTFTSEYSKYLDERAAQDFVQWLLDGGPSSGAPPPSK([γGlu-γGlu-Palmitoyl])G-NH2 [compound 16]”, in assay [3] (Table 1), the EC50 was determined as 2 pM.

As to “H[Aib]QGTFTSDYAKYLDERAAQDFVQWLLDGGPSSGAPPPSK([γGlu-γGlu-Palmitoyl])G-NH2 [compound 17]”, the EC50 was determined as 20 pM in assay [2] (Table 1) and 8 pM in assay [3] (Table 1).

For the molecule `CCCCCCCCCCCCCCCC(=O)N[C@@H](CCC(=O)NCCCC[C@H](NC(=O)[C@H](CC(=O)O)NC(=O)[C@H](CO)NC(=O)[C@@H](NC(=O)[C@H](Cc1ccccc1)NC(=O)[C@@H](NC(=O)CNC(=O)[C@H](CCC(=O)O)NC(=O)C(C)(C)NC(=O)[C@@H](N)Cc1c[nH]cn1)[C@@H](C)O)[C@@H](C)O)C(=O)N[C@@H](CO)C(=O)N[C@@H](CCCCN)C(=O)N[C@@H](Cc1ccc(O)cc1)C(=O)N[C@@H](CC(C)C)C(=O)N[C@@H](CC(=O)O)C(=O)N[C@@H](CCC(=O)O)C(=O)N[C@@H](CCCNC(=N)N)C(=O)N[C@@H](C)C(=O)N[C@@H](C)C(=O)N[C@@H](CCC(N)=O)C(=O)N[C@@H](CC(=O)O)C(=O)N[C@@H](Cc1ccccc1)C(=O)N[C@H](C(=O)N[C@@H](CCC(N)=O)C(=O)N[C@@H](Cc1c[nH]c2ccccc12)C(=O)N[C@@H](CC(C)C)C(=O)N[C@@H](CC(C)C)C(=O)N[C@@H](CCC(=O)O)C(=O)NCC(=O)NCC(=O)N1CCC[C@H]1C(=O)N[C@@H](CO)C(=O)N[C@@H](CO)C(=O)NCC(=O)N[C@@H](C)C(=O)N1CCC[C@H]1C(=O)N1CCC[C@H]1C(=O)N1CCC[C@H]1C(=O)N[C@@H](CO)C(N)=O)C(C)C)C(=O)O` [compound 44] (H-H[Aib]EGTFTSDK([γGlu-Palmitoyl])SKYLDERAAQDFVQWLLEGGPSSGAPPPS-NH2), a half-maximal response in assay [3] (Table 1) (EC50) required 7 pM.
